Measured values as given in patent US6139538A, “Iontophoretic agent delivery to the female reproductive tract” (Iotek, Inc., priority 1997, dated 2000).
Where “and” joins values, the source holds several entries; their conditions need not be identical. Equal entries are not always repeated. Where two headings read alike, the source gives them in different places.

Conditions: 20 minutes
[1] = Experiment #1, active (A1, A2, A3): 4% lidocaine solution, 1 mA
[2] = Experiment #1, passive (P1, P2, P3): 4% lidocaine solution, no current
[3] = Experiment #2, active (A1, A2, A3): 4% lidocaine solution, 1 mA

Description: Two identical experiments compared iontophoretic delivery of an anesthetic into the uterine wall with passive delivery of the anesthetic into the uterine wall. Each experiment was conducted using segments of porcine uteri. In the first experiment, there were three trials of iontophoretic delivery using fresh segments of porcine uteri from the first pig and three trials of passive delivery using fresh segments of porcine uteri from the first pig. This procedure was repeated in the second experiment using segments of porcine uteri from the second pig. The weight of the pig for the first experiment was 110 lbs., and the weight of the pig for the second experiment was 120 lbs.
When running each trial for both the first and second experiments, the segment of porcine uterus was placed between two half diffusion cells, a donor cell and a receptor cell. […] The receptor cell was filled with isotonic saline. […] The tissue samples were analyzed using high pressure liquid chromatography (HPLC).
For the active delivery trials in each experiment, a donor or delivery electrode (anode) of Ag was placed in the donor cell and a receptor or return electrode (cathode) of AgCl was placed in the receptor cell. A 1 mA current was then conducted between the donor and receptor electrodes for 20 minutes. For the passive delivery trials in each experiment, the segments of porcine uteri were left in the diffusion cell opening between the donor solution and the receptor solution for 20 minutes.

SMILES: CCN(CC)CC(=O)Nc1c(C)cccc1C [lidocaine]
- Total μg in tissue [1]: 604.6 µg and 600.2 µg and 494.6 µg
- μg/mL of lidocaine [1]: 120.9 µg/mL and 120.0 µg/mL and 98.9 µg/mL
- Total μg in tissue [2]: 131.8 µg and 95.5 µg and 172.1 µg
- μg/mL of lidocaine [2]: 26.4 µg/mL and 19.1 µg/mL and 34.4 µg/mL
- Total μg/g in tissue [3]: 702.3 µg/g and 808.2 µg/g and 781.1 µg/g
- μg/mL of lidocaine [3]: 140.5 µg/mL and 161.6 µg/mL and 156.2 µg/mL
